Test results published in patent publication US11938129B2, “Methods and compositions for the treatment of vascular disease” (THE GENERAL HOSPITAL CORPORATION, priority 2018, dated 2024).
“Also recorded” adds a separate entry of the source.

Key:
[1] = system: SM22a; test: immunostaining of SM22a protein in aortas of treated Fbn1C1039G/+ mice; type: in vivo, mouse; settings: compared to control Fbn1C1039G/+ mice
Description: (§1) Latex was injected into the left ventricular apex under low pressure until it was visible in the femoral artery. Animals were then fixed in Formalin (10%) for 24 hours before transfer to 70% ethanol for dissection and storage. Aortas were then removed from the animals or dissected in situ for photography prior to paraffinization and sectioning (10 pM). Slides were produced for tissue staining or stained with standard stains including H&E staining, collagen deposition (Trichrome Stain (Masson) Kit, Sigma, USA), elastin (Verhoeff-Van Gieson, Thermo Scientific, MI, USA) or F-actin (ActinGreen™ 488 ReadyProbes, ThermoFisher Scientific, USA) for quantitative analysis. Elastin integrity score was rated by blinded observers and graded on an arbitrary scale of 5 (indicating high quality elastic fiber) to 1 (indicating severe elastin fragmentation). For nuclear staining aortas from human and mice were cryosectioned using OCT standard protocol as described previously (Fischer et al., 2008). Cohorts of 8-week-old wild-type or Fbn1cw3gGi+ mice were treated with oral administration in drinking water of either Losartan or GSK343 for 20 weeks (FIG. 5). […] Then 200 mL of drinking water was supplemented with 250 pL of GSK343 stock solution. […] Aortic dimensions were monitored monthly by echocardiograms as mentioned above.

[2] = system: Mmp9; test: immunofluorescence of Mmp9 in ligated carotid; type: in vivo, mouse; settings: arterial media and intima of carotid arteries
Description: (§2) All mice used in this study were cared for under strict compliance with the Partners Institutional Animal Care and Use Committee (IACUC), regulated by the United States Public Health Service (USPHS). Carotid ligations were performed in 10 week old mice. Briefly, animals were anesthetized using intraperitoneal ketamine/xylazine (80 and 12 mg/kg, respectively) followed by a small incision in the neck to expose the carotid artery. Then the left carotid was ligated at the carotid bifurcation level using a 8-0 silk suture. At 21 days mice were sacrificed and carotids were collected for histological analysis. Approximately 98% of wild type mice developed stenotic lesions. Mice that developed thrombosis of the ligated carotid were excluded from the study (−1¬2%). Malatl knockout mice were kindly provided by Dr. David Spector (Cold Spring Harbor, N.Y.). Hdac9 flox/flox/Talgn-cre mice were generated as previously reported (10). […]
(§3) Left and right carotids were cryosectioned using OCT standard protocol and sectioning. […] Slides 1, 5, 10, and 15 were H&E stained for quantification of neointima. For quantification of the neointima, internal and external elastic lamina perimeters and medial thickness from 4 quadrants were measured and averaged using Image J software from the National Institutes of Health (NIH). […]

[3] = system: neointimal formation in ligated carotid; test: murine carotid artery ligation model: neointimal formation and stenosis (histology); type: in vivo, mouse; settings: wild-type mice, left carotid ligation, 21 days; GSK343 in drinking water from 24 hrs before ligation for 3 weeks; GapmeR 15 nmol 24 hrs before and 7 days post-ligation
Description: as §2, §3

[4] = system: Hdac9; test: immunofluorescence of Hdac9 in ligated carotid; type: in vivo, mouse; settings: arterial media and intima of carotid arteries
Description: as §2, §3

[5] = system: SM22a expression in TAA VSMCs; test: in vitro GSK343 treatment of isolated TAA VSMCs, SM22a immunoblotting after TGF-β1; type: cell-based, human; settings: GSK343, TGF-β1 10 ng/mL
Description: Primary human aortic smooth muscle cells (HAoSMC) from healthy donors were purchased from Cell Applications Inc., California, USA (Cat. #354K-05a). Primary aneurysm aortic SMCs were isolated from fresh TAA tissue at the moment of surgery by standard explant of the aortic media. Mouse aortic SMCs were isolated by standard explant of the ascending section of the aortas from wild-type or Fbn1ci°39G1+ mice. Smooth muscle cell identity was assessed by immunofluorescence staining of contractile markers including SM22a, Calponin, Smoothelin and Vinculin. In order to preserve cell identity all experiments were carried out at passages 1-5 (Timraz et al., 2016). Human and murine SMCs were grown with smooth muscle cell growth medium from Cell Applications Inc. (Cat. #311-500). VSMCs at 60-70% confluence were supplemented with opti-MEM 24 hrs before treatment with complete growing media containing GSK343 at a concentration of […] for 4 days. Fresh media containing GSK343 was supplied daily. For GSK343/TGF81 (10 ng/mL) combo treatment, cells were first treated with complete media containing GSK343 at concentration of 10 nM during the 2 first days followed by GSK343/TGFβ combination treatment the next 2 days. Prior to cellular collection cells were washed with sterile PBS and RNA or protein extraction were performed as described above.

[6] = system: H3K27 methylation in HCC1806 cells; settings: read-out: IC50 for inhibition of H3K27 methylation; cited from earlier work
[7] = biological target: EZH1 (Homo sapiens, UniProt Q92800); settings: cited from earlier work
Chain of EZH1 (Q92800 whole entry, species assumed): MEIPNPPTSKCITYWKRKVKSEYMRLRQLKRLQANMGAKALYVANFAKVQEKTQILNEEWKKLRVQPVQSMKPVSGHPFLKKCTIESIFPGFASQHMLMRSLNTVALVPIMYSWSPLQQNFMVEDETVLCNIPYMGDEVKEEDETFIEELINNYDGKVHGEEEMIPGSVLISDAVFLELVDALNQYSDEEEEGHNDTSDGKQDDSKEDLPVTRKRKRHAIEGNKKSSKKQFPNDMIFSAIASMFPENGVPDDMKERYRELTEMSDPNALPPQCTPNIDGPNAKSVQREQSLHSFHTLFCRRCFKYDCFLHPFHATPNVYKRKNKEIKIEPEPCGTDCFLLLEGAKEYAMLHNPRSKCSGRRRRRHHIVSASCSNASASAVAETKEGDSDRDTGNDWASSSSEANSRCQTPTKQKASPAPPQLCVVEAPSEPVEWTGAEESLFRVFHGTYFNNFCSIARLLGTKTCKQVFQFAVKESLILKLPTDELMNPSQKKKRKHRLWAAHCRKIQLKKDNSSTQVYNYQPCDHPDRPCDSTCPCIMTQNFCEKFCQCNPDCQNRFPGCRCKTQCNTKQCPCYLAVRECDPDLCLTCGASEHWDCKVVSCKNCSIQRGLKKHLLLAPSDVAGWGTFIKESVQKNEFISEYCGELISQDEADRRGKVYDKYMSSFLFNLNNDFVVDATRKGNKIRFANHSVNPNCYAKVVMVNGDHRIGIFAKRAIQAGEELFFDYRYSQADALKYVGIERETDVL
Chain of EZH1 (O75530 whole entry partner, species assumed): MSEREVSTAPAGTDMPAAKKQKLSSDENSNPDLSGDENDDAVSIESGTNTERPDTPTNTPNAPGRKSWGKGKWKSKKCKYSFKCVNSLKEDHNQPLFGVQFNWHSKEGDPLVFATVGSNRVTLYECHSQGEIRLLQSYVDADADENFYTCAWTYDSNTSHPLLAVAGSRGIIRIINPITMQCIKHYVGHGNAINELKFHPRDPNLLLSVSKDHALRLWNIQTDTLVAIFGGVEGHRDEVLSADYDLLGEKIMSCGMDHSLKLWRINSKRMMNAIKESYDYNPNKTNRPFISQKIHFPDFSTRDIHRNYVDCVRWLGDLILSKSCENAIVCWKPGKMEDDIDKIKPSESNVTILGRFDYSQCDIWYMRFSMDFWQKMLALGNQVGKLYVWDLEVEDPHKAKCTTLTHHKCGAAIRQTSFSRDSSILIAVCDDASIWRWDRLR
Chain of EZH1 (Q15022 whole entry partner, species assumed): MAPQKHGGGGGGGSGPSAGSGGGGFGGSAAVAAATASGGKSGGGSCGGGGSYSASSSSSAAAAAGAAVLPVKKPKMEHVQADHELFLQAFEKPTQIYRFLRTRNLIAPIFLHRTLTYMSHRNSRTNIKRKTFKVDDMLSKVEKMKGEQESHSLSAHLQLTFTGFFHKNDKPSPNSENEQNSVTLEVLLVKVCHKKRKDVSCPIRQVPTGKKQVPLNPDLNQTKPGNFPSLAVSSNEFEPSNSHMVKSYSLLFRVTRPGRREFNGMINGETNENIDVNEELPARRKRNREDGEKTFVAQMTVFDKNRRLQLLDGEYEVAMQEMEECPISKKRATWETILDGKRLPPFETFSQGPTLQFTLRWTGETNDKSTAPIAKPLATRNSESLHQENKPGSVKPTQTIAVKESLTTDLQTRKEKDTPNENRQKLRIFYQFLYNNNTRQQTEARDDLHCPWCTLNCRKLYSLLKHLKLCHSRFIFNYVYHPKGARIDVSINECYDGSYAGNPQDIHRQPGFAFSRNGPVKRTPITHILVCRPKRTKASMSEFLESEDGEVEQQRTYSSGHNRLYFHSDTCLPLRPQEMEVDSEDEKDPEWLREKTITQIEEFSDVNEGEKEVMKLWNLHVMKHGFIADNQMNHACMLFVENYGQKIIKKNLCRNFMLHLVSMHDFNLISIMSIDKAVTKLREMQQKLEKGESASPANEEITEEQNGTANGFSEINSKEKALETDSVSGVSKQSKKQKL
Chain of EZH1 (Q09028 whole entry partner, species assumed): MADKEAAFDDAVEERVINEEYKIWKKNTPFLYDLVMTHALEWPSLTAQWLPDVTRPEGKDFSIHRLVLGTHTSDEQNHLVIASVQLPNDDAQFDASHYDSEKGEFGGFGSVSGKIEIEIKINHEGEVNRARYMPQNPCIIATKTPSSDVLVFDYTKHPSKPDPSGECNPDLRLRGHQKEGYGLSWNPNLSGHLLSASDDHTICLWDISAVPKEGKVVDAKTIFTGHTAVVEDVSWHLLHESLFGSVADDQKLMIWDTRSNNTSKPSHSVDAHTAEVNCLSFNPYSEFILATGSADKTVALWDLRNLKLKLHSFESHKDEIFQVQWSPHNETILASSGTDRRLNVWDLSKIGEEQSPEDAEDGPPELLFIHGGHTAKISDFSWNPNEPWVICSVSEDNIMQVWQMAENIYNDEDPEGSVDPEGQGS
Chain of EZH1 (Q6ZN18 whole entry partner, species assumed): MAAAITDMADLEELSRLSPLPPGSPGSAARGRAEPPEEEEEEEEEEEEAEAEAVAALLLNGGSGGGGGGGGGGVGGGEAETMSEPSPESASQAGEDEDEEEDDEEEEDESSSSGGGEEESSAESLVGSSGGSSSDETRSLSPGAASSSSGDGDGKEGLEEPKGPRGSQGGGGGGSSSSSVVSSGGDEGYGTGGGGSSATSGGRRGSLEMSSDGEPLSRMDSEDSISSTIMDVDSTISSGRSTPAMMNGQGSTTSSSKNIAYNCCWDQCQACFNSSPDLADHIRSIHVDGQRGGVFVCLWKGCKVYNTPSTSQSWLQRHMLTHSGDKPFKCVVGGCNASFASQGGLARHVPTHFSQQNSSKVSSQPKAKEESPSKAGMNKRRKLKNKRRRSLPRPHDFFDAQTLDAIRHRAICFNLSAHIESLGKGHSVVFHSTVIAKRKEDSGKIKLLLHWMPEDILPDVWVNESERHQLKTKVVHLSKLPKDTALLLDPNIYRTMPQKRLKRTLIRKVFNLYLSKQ

[8] = system: H3K27me3; test: H3K27me3 staining in aortas of treated Fbn1C1039G/+ mice; type: in vivo, mouse; settings: compared to control or losartan treated mice
Description: as §1

[9] = system: TGF-β signaling; test: TGF-β activity by phosphorylation of Smad2 or Erk1 in aortas of treated mice; type: in vivo, mouse; settings: aortic tissue of treated Fbn1C1039G/+ mice
Description: as §1

Q: Which results are given for `CCCc1cc(C)[nH]c(=O)c1CNC(=O)c1cc(-c2ccnc(N3CCN(C)CC3)c2)cc2c1cnn2C(C)C` [GSK343]?
A: SM22a protein expression (immunostaining of aortas) [1]: recovery of SM22a protein expression; accumulation of Mmp9 [2]: decreased accumulation; extent of the stenotic response / neointimal formation [3]: significant inhibition of neointimal formation; also recorded: dramatically improved the extent of the stenotic response; accumulation of Hdac9 [4]: decreased accumulation; SM22a expression after stimulation with recombinant TGF-β1 [5]: recovered the ability to induce SM22a expression; IC50 [6]: < 200 nM; selectivity for EZH2 vs. EZH1 [7]: 60 fold; H3K27me3 staining / aortic medial H3K27me3 modifications [8]: significant suppression of H3K27me3 staining; also recorded: significantly decreased; TGF-β activity as assessed by phosphorylation of Smad2 or Erk1 protein [9]: did not suppress and not
